# Measured values as given in ChEMBL document CHEMBL6182831, “Thiazole-fused androstenone and ethisterone derivatives: potent β- and γ-actin cytoskeleton inhibitors to treat melanoma tumors” (RSC Med Chem, 2025).
# Activity calls are given as the source filed them. The calls are words filed in the database; no cut-off is given here.
# How the values were obtained:
# SK-MEL-28 [1] = test: Effect on ACTB mRNA expression in human SK-MEL-28 cells at 2 uM measured after 24 hrs by qRT-PCR analysis; assay type: functional, cell-based
# SK-MEL-28 [2] = test: Cytotoxicity against human SK-MEL-28 cells assessed as inhibition of cell growth incubated for 24 hrs by resazurin staining based analysis; assay type: functional; conditions: SK-MEL-28, 24 h
# [3] = Toxicity in C57BL/6 mouse assessed as change in BUN level at 40 mg/kg, ip administered once daily and measured up to 20 days; assay type: organism-based; conditions: in vivo, 480 h, time < 20 day
# SK-MEL-28 [4] = test: Effect on ACTB level in human SK-MEL-28 cells at 2 uM measured after 24 hrs by Western blot analysis; assay type: functional, cell-based
# [5] = Toxicity in C57BL/6 mouse assessed as change in albumin level at 40 mg/kg, ip administered once daily and measured up to 20 days; assay type: organism-based; conditions: in vivo, 480 h, time < 20 day
# B16-F10 [6] = test: Inhibition of colony formation in mouse B16-F10 cells at 6 uM incubated for 6 days by crystal violet staining based analysis; assay type: functional; conditions: B16-F10, 144 h, time 6 day
# SK-MEL-28 [7] = test: Downregulation of ACTB level in human SK-MEL-28 cells at 2 uM measured for 24 hrs by qRT-PCR analysis; assay type: functional, cell-based
# SK-MEL-5 = test: Cytotoxicity against human SK-MEL-5 cells assessed as inhibition of cell growth incubated for 24 hrs by resazurin staining based analysis; assay type: functional; conditions: SK-MEL-5, 24 h
# SK-MEL-28 [8] = test: Inhibition of cell adhesion in human SK-MEL-28 cells assessed as reduction in number of adherent cells incubated for 1.5 hrs; assay type: functional, cell-based
# B16-F10 [9] = test: Antitumor activity against mouse B16-F10 cells implanted in C57BL/6 mouse assessed as inhibition of tumor growth at 40 mg/kg, ip administered once daily from 6 to 9 days and every alternate days till 18; assay type: functional, organism-based; conditions: time 13.0 day
# SK-MEL-28 [10] = test: Effect on ACTG1 mRNA expression in human SK-MEL-28 cells at 2 uM measured after 24 hrs by qRT-PCR analysis; assay type: functional, cell-based
# [11] = Toxicity in C57BL/6 mouse assessed as change in body weight at 40 mg/kg, ip administered once daily and measured up to 20 days; assay type: organism-based; conditions: in vivo, 480 h, time < 20 day
# SK-MEL-28 [12] = test: Inhibition of cell migration in human SK-MEL-28 cells at 1.2 uM incubated for 24 hrs by wound healing assay; assay type: functional, cell-based
# SK-MEL-28 [13] = test: Inhibition of cell adhesion in human SK-MEL-28 cells at 2.5 uM incubated for 1.5 hrs; assay type: functional, cell-based
# [14] = Toxicity in C57BL/6 mouse assessed as animal survival at 40 mg/kg, ip administered once daily from 6 to 9 days and every alternate days till 19; assay type: organism-based; conditions: in vivo, time 14 day
# B16-F10 [15] = test: Induction of cell cycle arrest in mouse B16-F10 cells assessed as accumulation of cells at G2/M phase at 3 uM incubated for 24 hrs by PI staining based flow cytometry analysis; assay type: functional
# [16] = Toxicity in C57BL/6 mouse assessed as change in creatinine level at 40 mg/kg, ip administered once daily and measured up to 20 days; assay type: organism-based; conditions: in vivo, 480 h, time < 20 day
# SK-MEL-25 = test: Cytotoxicity against human SK-MEL-25 cells assessed as inhibition of cell growth incubated for 24 hrs by resazurin staining based analysis; assay type: functional; conditions: SK-MEL-25, 24 h
# LOX IMVI [17] = test: Cytotoxicity against human LOX IMVI cells assessed as inhibition of cell growth incubated for 24 hrs by resazurin staining based analysis; assay type: functional
# LOX IMVI [18] = test: Upregulation of PARVB mRNA expression in human LOX IMVI cells at 2 uM measured for 2 hrs by qPCR analysis; assay type: functional, cell-based
# B16-F10 [19] = test: Inhibition of cell adhesion in mouse B16-F10 cells at 2.5 uM incubated for 1.5 hrs; assay type: functional, cell-based
# SK-MEL-28 [20] = test: Induction of cell cycle arrest in human SK-MEL-28 cells assessed as accumulation of cells at G2/M phase at 3 uM incubated for 24 hrs by PI staining based flow cytometry analysis; assay type: functional
# B16-F10 [21] = test: Inhibition of cell adhesion in mouse B16-F10 cells assessed as reduction in number of adherent cells incubated for 1.5 hrs; assay type: functional, cell-based
# SK-MEL-28 [22] = test: Upregulation of PARVB mRNA expression in human SK-MEL-28 cells at 2 uM measured for 2 hrs by qPCR analysis; assay type: functional, cell-based
# B16-F10 [23] = test: Inhibition of cell migration in mouse B16-F10 cells at 2 uM incubated for 24 hrs by wound healing assay; assay type: functional, cell-based
# B16-F10 [24] = test: Inhibition of colony formation in mouse B16-F10 cells at 3 uM incubated for 6 days by crystal violet staining based analysis; assay type: functional; conditions: B16-F10, 144 h, time 6 day
# [25] = Toxicity in C57BL/6 mouse assessed as change in ALT level at 40 mg/kg, ip administered once daily and measured up to 20 days; assay type: organism-based; conditions: in vivo, 480 h, time < 20 day
# B16-F10 [26] = test: Antitumor activity against mouse B16-F10 cells implanted in C57BL/6 mouse assessed as reduction of tumor weight at 40 mg/kg, ip administered once daily from 6 to 9 days and every alternate days till 18; assay type: functional, organism-based; conditions: time 13.0 day
# SK-MEL-28 [27] = test: Effect on PARVB level in human SK-MEL-28 cells at 2 uM measured after 24 hrs by Western blot analysis; assay type: functional, cell-based
# B16-F10 [28] = test: Cytotoxicity against mouse B16-F10 cells assessed as inhibition of cell growth incubated for 24 hrs by resazurin staining based analysis; assay type: functional; conditions: B16-F10, 24 h
# [29] = Toxicity in C57BL/6 mouse assessed as change in amylase level at 40 mg/kg, ip administered once daily and measured up to 20 days; assay type: organism-based; conditions: in vivo, 480 h, time < 20 day
# [30] = Toxicity in C57BL/6 mouse assessed as change in total bilirubin level at 40 mg/kg, ip administered once daily and measured up to 20 days; assay type: organism-based; conditions: in vivo, 480 h, time < 20 day
# B16-F10 [31] = test: Induction of apoptosis in mouse B16-F10 cells at 8 uM measured for 24 hrs by Annexin V FITC/PI staining based flow cytometry analysis; assay type: functional, cell-based
# B16-F10 [32] = test: Antitumor activity against mouse B16-F10 cells implanted in C57BL/6 mouse assessed as reduction of tumor weight at 40 mg/kg, ip administered once daily from 6 to 12 days and every alternate days till 18; assay type: functional, organism-based; conditions: time 13.0 day
# [33] = Toxicity in C57BL/6 mouse assessed as animal survival at 40 mg/kg, ip administered once daily from 6 to 9 days and every alternate days till 18; assay type: organism-based; conditions: in vivo, time 13 day
# [34] = Toxicity in C57BL/6 mouse assessed as change in ALP level at 40 mg/kg, ip administered once daily and measured up to 20 days; assay type: organism-based; conditions: in vivo, 480 h, time < 20 day
# SK-MEL-28 [35] = test: Effect on ACTG1 level in human SK-MEL-28 cells at 2 uM measured after 24 hrs by Western blot analysis; assay type: functional, cell-based
# SK-MEL-28 [36] = test: Inhibition of colony formation in human SK-MEL-28 cells at 3 uM incubated for 8 days by crystal violet staining based analysis; assay type: functional; conditions: SK-MEL-28, 192 h, time 8 day
# SK-MEL-28 [37] = test: Inhibition of cell adhesion in human SK-MEL-28 cells at 1.5 uM incubated for 1.5 hrs; assay type: functional, cell-based
# SK-MEL-28 [38] = test: Inhibition of cell migration in human SK-MEL-28 cells at 1 uM incubated for 24 hrs by wound healing assay; assay type: functional, cell-based
# B16-F10 [39] = test: Inhibition of cell adhesion in mouse B16-F10 cells at 1.5 uM incubated for 1.5 hrs; assay type: functional, cell-based
# SK-MEL-28 [40] = test: Inhibition of colony formation in human SK-MEL-28 cells at 6 uM incubated for 6 days by crystal violet staining based analysis; assay type: functional; conditions: SK-MEL-28, 144 h, time 6 day
# SK-MEL-28 [41] = test: Inhibition of colony formation in human SK-MEL-28 cells at 6 uM incubated for 8 days by crystal violet staining based analysis; assay type: functional; conditions: SK-MEL-28, 192 h, time 8 day
# SK-MEL-28 [42] = test: Inhibition of colony formation in human SK-MEL-28 cells at 3 uM incubated for 6 days by crystal violet staining based analysis; assay type: functional; conditions: SK-MEL-28, 144 h, time 6 day
Structure (SMILES),IC50 (SK-MEL-28 [2]) [nM],Activity [3],Activity [5],inhibition at 6 µM (B16-F10 [6]) [%],Activity (SK-MEL-28 [7]),IC50 (SK-MEL-5) [nM],inhibition (SK-MEL-28 [8]),TGI (B16-F10 [9]),Activity [11],survival at 336 h [14] [%],Activity [16],IC50 (SK-MEL-25) [nM],IC50 (LOX IMVI [17]) [nM],Activity (SK-MEL-28 [20]),inhibition (B16-F10 [21]),inhibition (B16-F10 [23]),inhibition at 3 µM (B16-F10 [24]) [%],Activity [25],Activity (B16-F10 [26]),IC50 (B16-F10 [28]) [nM],also measured
C#C[C@]1(O)CC[C@H]2[C@@H]3CC=C4c5sc(-c6ccc(O)c(O)c6)nc5CC[C@]4(C)[C@H]3CC[C@@]21C,3600,Non-toxic,Non-toxic,100,Active,3700,Active,Active,Non-toxic,80,Non-toxic,2500,4400,Active,Active,Active,100,Non-toxic,Active,2600,Activity (SK-MEL-28 [1]): Active; Activity (SK-MEL-28 [4]): Active; Activity (SK-MEL-28 [10]): Active; inhibition (SK-MEL-28 [12]): Active; inhibition (SK-MEL-28 [13]): Active; Activity (B16-F10 [15]): Active; Activity (LOX IMVI [18]): Active; inhibition (B16-F10 [19]): Active; Activity (SK-MEL-28 [22]): Active; Activity (SK-MEL-28 [27]): Active; Activity [29]: Non-toxic; Activity [30]: Non-toxic; Activity (B16-F10 [31]): Active; Activity (B16-F10 [32]): Active; survival at 312 h [33]: ~80%; Activity [34]: Non-toxic; Activity (SK-MEL-28 [35]): Active
C#C[C@]1(O)CC[C@H]2[C@@H]3CC=C4c5sc(Nc6ccccc6)nc5CC[C@]4(C)[C@H]3CC[C@@]21C,1700,Non-toxic,Non-toxic,,,2400,,,Non-toxic,10,Non-toxic,1600,1600,,,,,Non-toxic,,2700,Activity [29]: Non-toxic; Activity [30]: Non-toxic; Activity (B16-F10 [32]): Active; survival at 312 h [33]: ~80%; Activity [34]: Non-toxic
C#C[C@]1(O)CC[C@H]2[C@@H]3CC=C4c5sc(Nc6ccc(F)cc6F)nc5CC[C@]4(C)[C@H]3CC[C@@]21C,1800,,,100,Active,1900,Active,Active,,,,2400,1600,Active,Active,Active,100,,Active,2500,inhibition at 3 µM (SK-MEL-28 [36]): 100%; inhibition (SK-MEL-28 [37]): Active; inhibition (SK-MEL-28 [38]): Active; inhibition (B16-F10 [39]): Active; inhibition at 6 µM (SK-MEL-28 [40]): 100%; inhibition at 6 µM (SK-MEL-28 [41]): 100%; Activity (B16-F10 [31]): Active; inhibition at 3 µM (SK-MEL-28 [42]): 100%
